Source: patent US20120258042A1, “COMBINED USE OF TGF-B SIGNALING INHIBITOR AND ANTITUMOR AGENT” (priority 2006, published 2012)
Read-outs that look alike come from different tables or passages of the source.

Legend:
[1] = system: Smad-4-deficient pancreatic adenocarcinoma cells (BxPC3); test: 3-7 BxPC3 xenograft growth curve, three administrations of ADR or Micelle-ADR with or without LY; assay type: in vivo, nude mice; conditions: day 16, Micelle-ADR 16 mg/kg or ADR 8 mg/kg i.v. three times spaced by four days, LY 1 mg/kg i.p. three times a week, start = 1, control 4.69±0.46
Description: For each of, 16 mg/kg of Micelle-ADR or 8 mg/kg of ADR as anticancer agent, or no anticancer agent, administration via the tail vein was carried out three times spaced by four days. […] For these animals, the approximated values of tumor volume were observed continuously for 16 days.

[2] = system: Smad-4-deficient pancreatic adenocarcinoma cells (BxPC3); test: 3-6 BxPC3 xenograft growth curve, single administration of ADR, Doxil, Micelle-ADR with or without LY; assay type: in vivo, nude mice; conditions: day 14, single dose 8 mg/kg anticancer agent i.v., LY 1 mg/kg i.p. once, start = 1, control 4.77±0.50
Description: For each of 8 mg/kg of Doxil, 8 mg/kg of Micelle-ADR or 8 mg/kg of ordinary ADR as anticancer agent, or no anticancer agent, which was administrated via the tail vein, administration was carried out only once. […] Inhib in the figures) as TGF-β inhibitor or a control.

[3] = system: TGFbRII-mutant pancreatic adenocarcinoma cell line MIA PaCa-2; test: 3-8 MIA PaCa-2 xenograft tumor growth curve; assay type: in vivo, nude mice; conditions: regimen as 3-7, start = 1, control 2.91±0.30
Description: For each of, 16 mg/kg of Micelle-ADR or 8 mg/kg of ADR as anticancer agent, or no anticancer agent, administration via the tail vein was carried out three times spaced by four days. As TGF-β inhibitor, 1 mg/kg of LY364947 (hereinafter, referred to as LY) or control was administered three times a week intraperitoneally. The experiment was carried out for the six conditions combining the above 3×2 types [of administration modes], with n=5 each. For these animals, the approximated values of tumor volume were observed continuously for 16 days. For the tumor volumes, those that have been approximated by long side of tumor mass×(short side)^2 were compared, taking 1 as the value at the administration start time for each tumor mass.

[4] = system: Smad-4-deficient pancreatic adenocarcinoma cells (BxPC3); test: Combined effect of Gemcitabine and LY364947 on tumor volume, pancreatic adenocarcinoma xenograft model; assay type: in vivo, nude mice; conditions: day 21, Gem 125 mg/kg i.p. twice a week, LY 1 mg/kg i.p. three times a week, value at start = 1, control 5.56±1.59
Description: Combining Gemcitabine (hereinafter, abbreviated as Gem), administrated twice a week intraperitoneally at 125 mg/kg, and LY364947 (hereinafter, referred to as LY), administrated three times a week intraperitoneally at 1 mg/kg, three groups were established as follows: a control group, a Gem alone administration group and a LY+Gem combined application group, with n=2 each. […] The tumor volumes were approximated by long side of tumor mass×(short side)^2 and compared, taking 1 as the value at the administration start time for each tumor mass.

[5] = system: phosphorylated Smad2; test: 3-3 Phosphorylated Smad2 staining in BxPC3 cancer tissue one hour after LY364947; assay type: in vivo, nude mice; conditions: 1 h
Description: As TGF-β inhibitor, 1 mg/kg, 25 mg/kg or a control of LY was administered once intraperitoneally. The animals were sacrificed one hour after administration to extract the tumor, and immuno-histological staining of the tumor was carried out using an antibody against phosphorylated Smad2 as well as an antibody against PECAM1.

[6] = system: phosphorylated Smad2; test: 3-4 Phosphorylated Smad2 in nucleated blood cells by FACS one hour after LY364947; assay type: in vivo, nude mice; conditions: LY 1 mg/kg i.p., 1 h, control group 35.7%
Description: Cancer-transplanted nude mice were administered once intraperitoneally with 1 mg/kg of LY as TGF-β inhibitor or a control. One hour after administration, whole blood collection was carried out, hemolysis treatment, formalin fixation, cell membrane perforation by methanol were carried out, then, staining was carried out with an antibody against phosphorylated Smad2, thereafter, the ratio of phosphorylated Smad2-positive cells was measured by FACS. In so doing, with those [samples] where only the secondary antibody was reacted serving as controls for the immuno-staining method, the gate was set so that rate of positive cell was approximately 1% in this group (P1 in FIG. 5-2), and the ratio of phosphorylated Smad2-positive cells was measured for the TGF-β inhibitor-administered group and the non-treated group.

[7] = system: existing vasculature of general organs (brain, liver, kidney); test: 3-2 General organs, vasculature morphological change and dextran distribution; assay type: in vivo, nude mice; conditions: LY 1 mg/kg i.p.
Text: Brain, liver and kidney were extracted from animals used in 3-1 to carry out histological search.

[8] = system: neovasculature; test: Matrigel plug assay, effects of TGF-β signaling inhibitor on neovasculature; assay type: in vivo, ICR mice; conditions: 500 nM LY
Description: In the present invention, increasing the leakiness of neovasculature in tumor tissue, and, depending on the circumstances, decreasing fibrosis, are phenomena that can be observed, for instance, in a dextran injection experiment (briefly, an experiment in which a mouse is used, a Matrigel in which VEGF-A and FGF-2 have been mixed is injected subcutaneously into the abdominal wall, and seven days after administering TGF-β signaling inhibitor intraperitoneally, 2,000,000 molecular weight dextran is injected, the animal is sacrificed, and the relationship between neovasculature and dextran distribution in the extracted Matrigel plug is determined: refer to Kano, M. R. et al., J. Cell Sci., 118, 3759-3768. (2005)) (refer to FIG. 2-1 and FIG. 2-2).
VEGF-A, FGF-2, and heparin were mixed into Matrigel (BD), furthermore, 500 nM of the TGF-β inhibitor LY364947 (hereinafter, referred to as LY) or 50 μg/ml of T βRII:Fc or a control was further mixed into the same gel, these were subcutaneously injected into the abdominal wall of male ICR mice, the animals were sacrificed on the 7th day to extract the Matrigel plug, and a search was carried out using immunofluorescence staining. Concretely, regarding the neovasculature morphology, vascular endothelial cells were recognized with an antibody against PECAM-1 (platelet endothelial cell adhesion molecule-1) and vascular pericytes were recognized with an antibody against SMA (a smooth muscle actin), in the LY-administered group or control group, the proportion of the areas covered by pericytes within the total endothelial cell area, and, the areas positive for the vascular endothelium marker were quantified (hereabove, n=20). In addition, 6 hours prior to sacrifice, macromolecular dextran with a molecular weight of 2,000,000 (Invitrogen Molecular Probes) was administered via the tail vein, and the difference in distribution in tumor tissue due to the presence or absence of inhibitor was investigated by quantification of the distribution area (n=21).

[9] = system: neovasculature in BxPC3 tumor tissue; test: 3-1 BxPC3 xenograft, neovasculature morphological change and dextran distribution; assay type: in vivo, nude mice
Description: Twenty-four hours before sacrificing the animals, 1 mg/kg of LY364947 (hereinafter, referred to as LY) as TGF-β inhibitor or a control was administered once intraperitoneally. […] Concretely, regarding the neovasculature morphology, vascular endothelial cells were recognized with an antibody against PECAM-1 (platelet endothelial cell adhesion molecule-1), vascular pericytes were recognized with an antibody against NG2 (neuroglycan 2), the proportion of the areas covered by pericytes within the total endothelial cell area, and, the areas positive for the vascular endothelium marker were quantified (hereabove, n=4 animals×10 microscopic visual fields=40), in addition, regarding dextran distribution, the distribution area thereof was quantified. In addition, after an identical model was prepared, 6 hours prior to sacrifice, macromolecular dextran with a molecular weight of 2,000,000 (Invitrogen Molecular Probes) was administered via the tail vein, and the difference in distribution in tumor tissue due to the presence or absence of inhibitor was investigated by quantification of the distribution area (n=3 animals×4 microscopic visual field=12).

[10] = 3-14 Drug in vivo dynamics in general organs, Micelle-ADR or ADR with LY; set-up: species or system nude mice
Description: Each of 8 mg/kg of Micelle-ADR or 8 mg/kg of ADR as anticancer agent was administered to tumor-bearing nude mice via the tail vein. As TGF-β inhibitor, 1 mg/kg of LY or a control was administered intraperitoneally. Experiment was carried out for the four conditions combining the above 2×2 types [of administration modes], with n=3. […] In addition, the surrounding of the tail vein where the agents were administered was observation.

[11] = system: mouse breast cancer cell line 4T1; conditions: systemic administration by intraperitoneal injection; cited from earlier work
[12] = system: hepatic fibrosis; conditions: intraperitoneal injection, cited from earlier work

Q: With COc1cccc2c1C(=O)c1c(O)c3c(c(O)c1C2=O)C[C@@](O)(C(=O)CO)C[C@@H]3O[C@H]1C[C@H](N)[C@H](O)[C@H](C)O1 [ADR, adriamycin] as the molecule, how does the “relative tumor volume on the last day” value [1] read?
A: The value was 3.49±0.20.

Q: What about the “relative tumor volume on the last day” value [2] of the same molecule?
A: Its value is 4.70±0.32.

Q: And the “relative tumor volume on the last day (16th day)” value [3]?
A: The value was 0.87±0.19.

Q: For Nc1ccn([C@@H]2O[C@H](CO)[C@@H](O)C2(F)F)c(=O)n1 [Gemcitabine], which “relative tumor volume on the last day” value [4] is on record?
A: The value was 4.76±0.46.

Q: With c1ccc(-c2[nH]ncc2-c2ccnc3ccccc23)nc1 [LY364947] as the molecule, how does the “Smad2 phosphorylation in intratumoral vascular walls, magnified visual field” value ([5]; LY 1 mg/kg i.p.) read?
A: The value was “cancellation of Smad2 phosphorylation was observed”.

Q: And the “phosphorylated Smad2 staining of tumor vs control, weak magnification visual field” value ([5]; LY 1 mg/kg i.p.)?
A: The value was “no remarkable difference”.

Q: What about the “Smad2 phosphorylation in cancer cells” value ([5]; LY 25 mg/kg i.p.) of the same molecule?
A: Its value is “cancellation of Smad2 phosphorylation was observed in almost the entirety of the cancer cells”.

Q: And the “cells positive for phosphorylated Smad2” value [6]?
A: The value was 16.3%.

Q: What about the “dextran distribution in general organs” value [7] of the same molecule?
A: The value was “no clear difference”.

Q: What about the “morphology of existing vasculature of general organs” value [7] of the same molecule?
A: Its value is “No clear change in morphology”.

Q: And the “total area of the vascular endothelium” value ([8]; day 7, p=0.0009)?
A: Its value is “increased significantly”.

Q: And the “endothelial cell coverage of the pericytes” value ([8]; day 7, vs non-administered group, p=0.006)?
A: Its value is “decreased significantly”.

Q: What about the dextran distribution area ([8]; dextran MW 2,000,000 i.v. 6 h before sacrifice, p<0.0001) of the same molecule?
A: Its dextran distribution area is “increased approximately two-fold”.

Q: What about the “relative tumor volume on the last day” value [1] of the same molecule?
A: The value was 4.34±0.37.

Q: And the “relative tumor volume on the last day” value [2]?
A: Its value is 4.83±0.54.

Q: What about the “endothelial cell marker-positive area” value ([9]; BxPC3 xenograft, LY 1 mg/kg i.p. once, 24 h, control 1.00±0.03, p=0.02) of the same molecule?
A: The value was 1.13±0.06.

Q: And the “extent of coverage of endothelial cells by the pericyte” value ([9]; BxPC3 xenograft, LY 1 mg/kg i.p. once, 24 h, control 36.0±2.2%, p=0.00002)?
A: The value was 23.3±1.9%.

Q: And the “macromolecular dextran distribution area” value ([9]; BxPC3 xenograft, LY 1 mg/kg i.p. once, dextran MW 2,000,000 6 h before sacrifice, control 1.00±0.13, p=0.002)?
A: Its value is 2.24±0.36.

Q: What about the “fibrosis of tumor tissue (azan staining)” value ([9]; LY 1 mg/kg, administered vs non-administered, P=0.336) of the same molecule?
A: Its value is “no significant difference”.

Q: And the “organ distribution (frozen samples), LY administration vs non-administration” value ([10]; LY 1 mg/kg i.p., four hours)?
A: Its value is “no clear difference”.

Q: And the “total amount of ADR in organs by the HPLC method, LY administration vs non-administration” value ([10]; Micelle-ADR 8 mg/kg i.v., LY 1 mg/kg i.p., four hours, all organs measured)?
A: Its value is “no significant difference”.

Q: And the anticancer agent-related phlebitis ([10]; combined administration of LY 1 mg/kg i.p., surrounding of the tail vein)?
A: The anticancer agent-related phlebitis was “no deterioration”.

Q: What about the “relative tumor volume on the last day (16th day)” value [3] of the same molecule?
A: The value was 2.75±0.08.

B1: solubilized TGF-β Type II receptor: solubilized TGF-β Type II receptor (TGF-β ligand-adsorbed) protein, literature studies (protein, UniProt P37173 23-166, looked up)
extracellular domain: TIPPHVQKSVNNDMIVTDNNGAVKFPQLCKFCDVRFSTCDNQKSCMSNCSITSICEKPQEVCVAVWRKNDENITLETVCHDPKLPYHDFILEDAASPKCIMKEKKKPGETFFMCSCSSDECNDNIIFSEEYNTSNPDLLLVIFQ
modifications: extracellular domain
notes: solubilized TGF-β Type II receptor (TGF-β ligand-adsorbed) protein, literature studies
Q: For B1, which lung metastasis [11] is on record?
A: Its lung metastasis is “decreased”.

Q: What about the hepatic fibrosis ([12]; 2.5 mg/kg) of the same molecule?
A: Its hepatic fibrosis is “not suppressed”.

Q: What about the hepatic fibrosis ([12]; 5 mg/kg) of the same molecule?
A: Its hepatic fibrosis is “suppressed”.
